Measured values taken from patent US12616751B2, “Photosensitizing antibody-fluorophore conjugates” (The USA, as represented by the Secretary, Department of …, priority 2010, dated 2026).
Values joined by “and” are separate entries in the source; they are usually repeats but may differ in a detail not shown here. Equal values may be shown once.

How the values were obtained:
A431 (HER1+) tumors = test: In vivo PIT efficacy in A431 tumors
Method: To determine the effect of Pan-IR700 or carrier alone followed by PIT, the following methods were used. […] Four days after A431 cell injection as described above, tumor volume reaching around 40 mm^3 were selected for the study. […] To test a short-term toxicity, 300 μg of Pan-IR700 was repeatedly administrated intravenously for non-tumor-bearing mice, twice a week, for 4 weeks.

A431 tumors [1] = test: In vivo FLT imaging after PIT; parameters: species or system mice
Method: Reagents. […] All other chemicals used were of reagent grade. […] Then the mixture was purified with a Sephadex G50 column (PD-10; GE Healthcare). The protein concentrations were determined with Coomassie Plus protein assay kit (Pierce Biotechnology) by measuring light absorption at 595 nm (8453 Value System; Agilent Technologies). […] The number of IR700 per antibody was approximately 4 for the 1:4.5 reaction conditions. The addition of 0.4% SDS to the sample dissociated the fluorophores from each other, effectively causing dequenching. Quenching efficiency (QE) for a particular conjugation is defined as the fluorescence intensity with SDS divided by fluorescence intensity without SDS. […] Pan-1R700 was kept at 4° C. in the refrigerator as a stock solution. Fluorescence lifetime measurements. FLT experiments were performed with the eXplore OptixTm-MX2 system (ART Advanced Research Technologies, Inc.) (Hutchinson et al., Biophys J 68:1574-82, 1995; Ma et al., Appl Opt 46:1650-7, 2007). A fixed pulsed laser diode was used as an excitation source at a wavelength of 670 nm. Region of interest (ROI) measurements with a spot size of 1.5 mm were selected at the image plane. […] Lifetime analysis was performed by using the ART OptiView (ART Advanced Research Technologies, Inc.). Lifetime values and lifetime mapping were calculated to fit fluorescence temporal point-spread functions (TPSFs) as single-exponential models with the Fit TPSF tool. Photoimmunotherapy for in vitro and in vivo models. PIT was performed with a red light-emitting diode (LED) light at 680 to 700 nm wavelength (Tech-LED, Marubeni America Co.) (Mitsunaga et al., Bioconjug Chem. 23:604-9, 2012). Power densities were measured with an optical power meter (PM 100, Thorlabs). Determination of FLT for Pan-IR700. Samples of Pan-IR700 at concentrations of 2.5, 5, 20, 40 pg/mL were prepared by dilution with PBS. The fluorescence intensities and lifetimes of each sample were determined using the Optix MX2 system at room temperature within a 1.7 ml centrifuge tube. To investigate the effect of PIT using Pan-1R700, the FLT of each sample at the concentration of 50 pg/mL was measured after irradiating the samples at a PIT dose of 0, 2, 4, 8, 15, 30 J/cm2. Cell line. […] The cell line was grown in RPMI 1640 (Life Technologies) containing 10% fetal bovine serum (Life Technologies), 0.03% L-glutamine, 100 units/mL penicillin, and 100 μg/mL streptomycin in 5% CO2 at 37° C. Cell pellet FLT studies A431. Cells were plated on […] cell culture flasks and incubated until confluent. Then Pan-IR700 conjugate was added to the media (1 pg/mL), and cells were incubated for 24 h at 37° C. Upon completion of incubation, cells were removed from the flasks, and centrifuged to obtain pellets. The resulting cell pellets were washed with PBS×3 and placed in 1.7 mL centrifuge tubes. The fluorescence intensities and lifetimes of each sample were then obtained. […] After that, these pellets were gently washed with PBS×1 and fluorescence intensity and lifetime images were obtained. To detect the antigen specific localization of IR700 and to confirm the morphological changes of A431 cells before and after PIT, fluorescence microscopy was performed using Olympus BX61 microscope (Olympus America) equipped with the following filters: a 590-650 nm excitation filter, a 665-740 nm band pass emission filter. […]

A431 tumors [2] = test: Histological analysis immediately after PIT; format: in vivo, mice

Substance: Pan-IR700: Panitumumab (anti-human EGFR IgG2 MAb) conjugated to IR700; about 3 to 4 IR700 per antibody
- tumor shrinkage of irradiated tumor (A431 (HER1+) tumors; 300 μg, NIR light on day 1): Tumor shrinkage was confirmed on day 7
- survival time (A431 (HER1+) tumors; 30 J cm^−2): significant increases in survival time
- tumor growth (A431 (HER1+) tumors; 30 J cm^−2, day 3, 7, 10, 14 and 17 after treatment): significant tumor growth inhibition
- lethal side effects (A431 (HER1+) tumors; during or after the treatment): no lethal side effects were found
- antitumor activity, 50 μg versus 300 μg (A431 (HER1+) tumors; following irradiation): less antitumor activity
- pathological analysis of tumor (A431 (HER1+) tumors; four days following PIT): only scant viable A431 tumor cells were present
- day at which PIT treated tumors began to shrink (A431 (HER1+) tumors; mouse, in vivo): 2 days
- tissue edema (A431 (HER1+) tumors; mouse, in vivo): tissue edema developed superficially
- FLT shortening compared with untreated control (A431 tumors [1]; 10 J/cm^2, 48 hours after PIT): 7.7%
- FLT immediately after PIT, compared with no treatment controls (A431 tumors [1]; 30 J/cm^2): 61.5+/−5.1% and 61.5 ± 15.1%
- FLT immediately after PIT, of untreated tumors in the same mouse (A431 tumors [1]; 30 J/cm^2): 61.5%+/−5.05
- FLT immediately after PIT, compared with no treatment controls (A431 tumors [1]; 50 J/cm^2): 69.1+/−10.9%
- FLT immediately after PIT, of untreated tumors in the same mouse (A431 tumors [1]; 50 J/cm^2): 69.0%+110.92
- necrosis (H-E histology) (A431 tumors [2]; 10 J/cm^2): necrotic cell damage was found in only limited areas
- necrosis (H-E histology) (A431 tumors [2]; 30 or 50 J/cm^2): Necrotic damage was diffuse and intense
